# Test results published in publication PMC10653547, “Synergistic effect of two antimicrobial peptides, BP203 and MAP-0403 J-2 with conventional antibiotics against colistin-resistant Escherichia coli and Klebsiella pneumoniae clinical isolates” (PLOS ONE, 2023).
# Tests used:
# [1] = test system: colistin-resistant E. coli clinical isolates; assay: Disk diffusion antimicrobial susceptibility testing (CLSI); format: cell-based, Escherichia coli
# [2] = test system: colistin-resistant K. pneumoniae clinical isolates; assay: as above; format: cell-based, Klebsiella pneumoniae
# [3] = test system: colistin-resistant K. pneumoniae clinical isolates; assay: Checkerboard assay for synergy testing; format: cell-based, Klebsiella pneumoniae; conditions: checkerboard Ceftazidime+MAP-0403 J-2
# Outline: (§1)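 Two-fold serial dilutions of peptide and antibiotic, alone and in combination, in CAMHB against colistin-resistant clinical isolates at 5 × 10^5 CFU/mL, 37 °C for 20–24 h. MIC is the lowest concentration with no growth; FICI = sum of each agent's MIC in combination divided by its MIC alone.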
# [4] = test system: colistin-resistant E. coli clinical isolates; assay: Checkerboard assay for synergy testing; format: cell-based, Escherichia coli; conditions: checkerboard Ceftazidime+MAP-0403 J-2
# Outline: as §1
smiles,measurement,setting,value
"CC(C)(O/N=C(\C(=O)N[C@@H]1C(=O)N2C(C(=O)[O-])=C(C[n+]3ccccc3)CS[C@H]12)c1csc(N)n1)C(=O)O [CAZ, ceftazidime]",Interpreted results of disk diffusion,[1]; EC-01,R
same,Interpreted results of disk diffusion,[1]; EC-02,I
same,Interpreted results of disk diffusion,[1]; EC-03,R
same,Interpreted results of disk diffusion,[1]; EC-04,R
same,Interpreted results of disk diffusion,[1]; EC-05,S
same,Interpreted results of disk diffusion,[1]; EC-06,R
same,Interpreted results of disk diffusion,[1]; EC-07,I
same,Interpreted results of disk diffusion,[1]; EC-08,S
same,Interpreted results of disk diffusion,[1]; EC-09,I
same,Interpreted results of disk diffusion,[1]; EC-10,S
same,%Resistance,"[1]; ten E. coli isolates, disk diffusion",40%
same,Interpreted results of disk diffusion,[2]; KP-01,R
same,Interpreted results of disk diffusion,[2]; KP-02,R
same,Interpreted results of disk diffusion,[2]; KP-03,R
same,Interpreted results of disk diffusion,[2]; KP-04,R
same,Interpreted results of disk diffusion,[2]; KP-05,R
same,Interpreted results of disk diffusion,[2]; KP-06,R
same,Interpreted results of disk diffusion,[2]; KP-07,R
same,Interpreted results of disk diffusion,[2]; KP-08,R
same,Interpreted results of disk diffusion,[2]; KP-09,R
same,Interpreted results of disk diffusion,[2]; KP-10,R
same,%Resistance,"[2]; ten K. pneumoniae isolates, disk diffusion",100%
same,MIC combination,[3]; isolate KP-01,16 µg/mL
same,MIC combination,[3]; isolate KP-02,16 µg/mL
same,MIC combination,[3]; isolate KP-03,512 µg/mL
same,MIC combination,[3]; isolate KP-04,512 µg/mL
same,MIC combination,[3]; isolate KP-05,512 µg/mL
same,MIC combination,[3]; isolate KP-06,32 µg/mL
same,MIC combination,[3]; isolate KP-07,256 µg/mL
same,MIC combination,[3]; isolate KP-08,512 µg/mL
same,MIC combination,[3]; isolate KP-09,512 µg/mL
same,MIC combination,[3]; isolate KP-10,32 µg/mL
same,MIC alone,[4]; isolate EC-01,8 µg/mL
same,MIC combination,[4]; isolate EC-01,0.5 µg/mL
same,MIC alone,[4]; isolate EC-02,16 µg/mL
same,MIC combination,[4]; isolate EC-02,4 µg/mL
same,MIC alone,[4]; isolate EC-03,16 µg/mL
same,MIC combination,[4]; isolate EC-03,1 µg/mL
same,MIC alone,[4]; isolate EC-04,4 µg/mL
same,MIC combination,[4]; isolate EC-04,1 µg/mL
same,MIC alone,[4]; isolate EC-05,1 µg/mL
same,MIC combination,[4]; isolate EC-05,0.0625 µg/mL
same,MIC alone,[4]; isolate EC-06,16 µg/mL
same,MIC combination,[4]; isolate EC-06,4 µg/mL
same,MIC alone,[4]; isolate EC-07,16 µg/mL
same,MIC combination,[4]; isolate EC-07,2 µg/mL
same,MIC alone,[4]; isolate EC-08,1 µg/mL
same,MIC combination,[4]; isolate EC-08,0.25 µg/mL
same,MIC alone,[4]; isolate EC-09,32 µg/mL
same,MIC combination,[4]; isolate EC-09,4 µg/mL
same,MIC alone,[4]; isolate EC-10,16 µg/mL
same,MIC combination,[4]; isolate EC-10,2 µg/mL
